Reference: PubChem BioAssay (NCI)
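Each compound was tested at five concentrations against cells in 96-well plates for 48 hours. GI50 marks 50% less growth. The concentration for full growth arrest is given as TGI.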

How the values were obtained:
Experiment in all cases: NCI tumour cell line growth inhibition, 48 h
BT-549 breast = test system: BT-549 breast
T-47D breast = test system: T-47D breast
PC-3 prostate = test system: PC-3 prostate
MDA-MB-435 = test system: MDA-MB-435
MDA-N = test system: MDA-N
SNB-78 CNS = test system: SNB-78 CNS
DMS 114 small cell lung = test system: DMS 114 small cell lung
DMS 273 small cell lung = test system: DMS 273 small cell lung

Cc1ccc(S(=O)(=O)N2CCc3ccc(O)c4c3C2Cc2ccc3c(c2-4)OCO3)cc1 (stereo unspecified)
GI50 (BT-549 breast): 0.822 µM
TGI (BT-549 breast): 12.5 µM
GI50 (T-47D breast): 0.968 µM
TGI (T-47D breast): 51 µM
GI50 (PC-3 prostate): 0.808 µM
TGI (PC-3 prostate): 19.5 µM
GI50 (MDA-MB-435): 0.216 µM
TGI (MDA-MB-435): 0.539 µM

[CH3][Sn]([CH3])([CH3])[O][N+](=O)[O-]
GI50 (T-47D breast): 4.09 µM
TGI (T-47D breast): > 10 µM
GI50 (MDA-N): 5.14 µM
TGI (MDA-N): > 10 µM
GI50 (PC-3 prostate): > 10 µM
TGI (PC-3 prostate): > 10 µM
GI50 (MDA-MB-435): 5.93 µM
TGI (MDA-MB-435): > 10 µM

CCOC(=O)c1cccnc1C(OC(C)=O)OC(C)=O
TGI (SNB-78 CNS): > 100 µM
TGI (DMS 114 small cell lung): > 100 µM
TGI (DMS 273 small cell lung): > 100 µM

CC1=C([Se]CC(OC(=O)[C@@H](CO)NC(=O)OC(C)(C)C)C(=O)NCCCCCC(=O)OCc2ccccc2)C(=O)c2ccccc2C1=O (stereo partly specified)
GI50 (BT-549 breast): 1.73 µM
TGI (BT-549 breast): 3.11 µM
GI50 (T-47D breast): 1.62 µM
TGI (T-47D breast): 3.95 µM
GI50 (PC-3 prostate): 1.23 µM
TGI (PC-3 prostate): 2.58 µM
GI50 (MDA-MB-435): 1.79 µM
TGI (MDA-MB-435): 3.49 µM

C=C1C(=O)O[C@H]2[C@H]1CC/C(COC(=O)NCCCCCCCCNC(=O)OC/C1=C/CC[C@@]3(C)O[C@H]3[C@H]3OC(=O)C(=C)[C@@H]3CC1)=C\CC[C@@]1(C)O[C@@H]21
GI50 (BT-549 breast): 0.257 µM
TGI (BT-549 breast): 0.748 µM
GI50 (T-47D breast): 0.323 µM
TGI (T-47D breast): 0.915 µM
GI50 (PC-3 prostate): 0.385 µM
TGI (PC-3 prostate): 1.63 µM
GI50 (MDA-MB-435): 0.241 µM
TGI (MDA-MB-435): 0.686 µM

COc1ccc2nc(NC(=O)C(=O)NNC(=O)c3ccncc3)sc2c1
TGI (SNB-78 CNS): > 100 µM
TGI (DMS 114 small cell lung): > 100 µM

COc1ccc(N(C)c2nc(Cl)nc3cnn(C)c23)cc1
GI50 (BT-549 breast): 0.0207 µM
TGI (BT-549 breast): > 71.6 µM
GI50 (T-47D breast): < 0.01 µM
TGI (T-47D breast): > 100 µM
GI50 (PC-3 prostate): < 0.01 µM
TGI (PC-3 prostate): > 100 µM

CN(C)CCOC(=O)Nc1nc2ccc(Sc3ccccc3)cc2[nH]1
GI50 (BT-549 breast): 3.2 µM
TGI (BT-549 breast): 13.5 µM
GI50 (T-47D breast): 4.66 µM
TGI (T-47D breast): 21.4 µM
GI50 (PC-3 prostate): 3 µM
TGI (PC-3 prostate): 22.7 µM
GI50 (MDA-MB-435): 0.432 µM
TGI (MDA-MB-435): 2.26 µM

COc1cc2c(cc1C)NC(=O)/C2=C\c1c[nH]c2ccccc12
GI50 (BT-549 breast): 17.4 µM
TGI (BT-549 breast): 36.3 µM
GI50 (T-47D breast): 13.2 µM
TGI (T-47D breast): 45.8 µM
GI50 (PC-3 prostate): 12.2 µM
TGI (PC-3 prostate): 31.5 µM
GI50 (MDA-MB-435): 14.3 µM
TGI (MDA-MB-435): 43.8 µM

CCn1ccc(NS(=O)(=O)c2ccc(N)cc2)nc1=O
GI50 (BT-549 breast): > 100 µM
TGI (BT-549 breast): > 100 µM
GI50 (T-47D breast): > 100 µM
TGI (T-47D breast): > 100 µM
GI50 (PC-3 prostate): > 100 µM
TGI (PC-3 prostate): > 100 µM
GI50 (MDA-MB-435): > 100 µM
TGI (MDA-MB-435): > 100 µM

Cc1cc(Cl)cc(Cc2cc(Cl)cc(C)c2O)c1O
GI50 (BT-549 breast): 2.46 µM
TGI (BT-549 breast): 7.02 µM
GI50 (T-47D breast): 3.64 µM
TGI (T-47D breast): > 100 µM
GI50 (PC-3 prostate): 2.55 µM
TGI (PC-3 prostate): 8.68 µM
GI50 (MDA-MB-435): 2.05 µM
TGI (MDA-MB-435): 6.39 µM

O=C(O[C@H]1CCN2C[C@H]3C[C@H](CN4C(=O)CCC[C@H]34)[C@@H]2C1)c1ccc(O)cc1
TGI (BT-549 breast): > 100 µM
TGI (T-47D breast): > 100 µM
TGI (MDA-N): > 100 µM
TGI (PC-3 prostate): > 100 µM
TGI (MDA-MB-435): > 100 µM

CC(C)C1N2CCCCC2[C@@H]2c3[nH]c4ccccc4c3CCN12 (stereo partly specified)
TGI (SNB-78 CNS): > 100 µM
TGI (DMS 114 small cell lung): > 100 µM
TGI (DMS 273 small cell lung): > 100 µM

O=C(/C=C/OC(=O)c1cccc(Cl)c1)c1ccc(Cl)cc1
GI50 (BT-549 breast): 30.3 µM
TGI (BT-549 breast): > 77 µM
GI50 (T-47D breast): > 48.8 µM
TGI (T-47D breast): > 100 µM
GI50 (PC-3 prostate): 30.7 µM
TGI (PC-3 prostate): > 95.9 µM
GI50 (MDA-MB-435): 44.6 µM
TGI (MDA-MB-435): > 100 µM
